# Test results as given in patent publication US11643405B2, “Compound for treatment or prevention of liver diseases” (JIANGSU ATOM BIOSCIENCE AND PHARMACEUTICAL CO., LTD., priority 2018, dated 2023).
# Marks after values point to notes of the source that are not given here.
# Experiments:
# [1] = test system: zebrafish non-alcoholic fatty liver; experiment: Fat reduction or elimination effect on thioacetamide-induced zebrafish non-alcoholic fatty liver (Oil Red O staining); type: in vivo; conditions: for The total optical density of liver fat: mean ± SE, n = 10; for inhibition at 100 µM / inhibition at 200 µM: Danio rerio, read-out: Inhibition rate of liver steatosis
# Procedure: 40 mM stock solution of test compounds 4, 5, 6, 7, 46, 67, 78, 85, 92 and 101 were prepared with DMSO, and stored in a refrigerator at −20° C. The positive control compound S-adenosylmethionine (SAM) was purchased from Aladdin Reagent (Shanghai) Co., Ltd., with the batch number F1523051, which was prepared into a 50 mM stock solution with DMSO. The control compound silymarin was purchased from Shanghai Dibai Biotechnology Co., Ltd., with the batch number EE09, which was prepared into a 40 mM stock solution with DMSO. Thioacetamide was purchased from Sigma-Aldrich, with the batch number BCBV3031, which wasprepared into a 1 M stock solution with DMSO. Oil Red O was purchased from Sigma-Aldrich, with the batch number SLBP5248V. 4% paraformaldehyde was purchased from Dingguo Biotechnology Co., Ltd., with the batch number 773001800. Propylene glycol was purchased from Sinopharm Chemical Reagent Co., Ltd., with the batch number 20170615.
# The melanin allele mutant translucent Albino line zebrafish was reproduced in natural paired mating. The fish age was 3 days after fertilization, with 30 fish per experimental group.
# The above zebrafish were raised in fish farming water at 28° C. (water quality: 200 mg instant sea salt was added to 1 L of reverse osmosis water, conductivity was 480-510 μS/cm; pH was 6.9-7.2; hardness was 53.7-71.6 mg/L CaCOs), the experimental animal use license number was: SYXK (Zhejiang) 2012-0171. Feeding management met the requirements of international AAALAC certification.
# Three days after fertilization, the normal melanin allele mutant translucent Albino strain of zebrafish was randomly selected and placed in a six well plate with 30 fish per well (i.e. each experimental group), and then thioacetamide with the final concentration of 7 mM was used to treat zebrafish for 72 hours to establish the non-alcoholic fatty liver model.
# The zebrafish were transferred to a six-well plate, with 30 fish per well (i.e., each experimental group) randomly. Non-alcoholic fatty liver model in zebrafish were induced by thioacetamide. 40 mM test compounds 4, 5, 6, 7, 46, 67, 78, 85, 92 and 101 were quantitatively transferred to a six-well plate, and diluted with water to the corresponding concentration. Test compounds 4, 5, 6 and 7 were formulated into two dose groups with final concentration of 100 μM and 200 μM, respectively; test compound 46 was formulated into a dose group with final concentration of 200 μM; test compounds 67, 78, 85, 92 and 101 were formulated into dose groups with a final concentration of 100 μM; 50 mM positive control SAM was formulated with water to a dose group with final concentration of 50 μM, and a 40 mM positive control silymarin was formulated with water to two concentration dose groups with final concentration of 100 μM and 200 μM. A normal control group (zebrafish treated with fish farming water) and a model control group were set at the same time, and the total volume of each well was 3 mL. Except for the normal control group, the other experimental groups were treated with thioacetamide for 72 hours and stained with Oil Red O. After staining, 10 zebrafish were randomly selected from each experimental group and photographed under a dissecting microscope, NIS-Elements D 3.10 advanced image processing software was used to perform image analysis and collect data, the total optical density (S) of zebrafish liver fat was statistically analyzed, and for the inhibitory effect of each experimental group on liver steatosis of zebrafishwas evaluated by the following formula, the results of statistical analysis were expressed as mean±SE: Inhibition rate of liver steatosis (%)=[S(model control group)−S(test compound group)]/[S(model control group)−S(normal control group)]×100%
# Statistical analysis was performed using analysis of variance and Dunnett's T-test, and p<0.05 indicated a significant difference. […]
# NASH mice = experiment: Efficacy on non-alcoholic steatohepatitis (NASH) mice fed high-fat feed; type: in vivo, C57BL/6 mice; conditions: for Liver coefficient (liver weight/body weight) / Liver weight: 28 days; for Liver weight: X ± SD
# Procedure: The test compounds were 4 and 7, respectively; the positive control silymarin was purchased from Shanghai Dibai Biotechnology Co., Ltd., with the batch number HH06.
# Low-dose group (35 mg/kg) solution preparation: the quantitative test compound was precisely weighed and a certain amount of normal saline was added to prepare the oral suspension solution with the concentration of 3.5 mg/mL. The administration volume was 10 mL/kg.
# High-dose group (70 mg/kg) solution preparation: the quantitative test compound was precisely weighed and a certain amount of normal saline was added to prepare the oral suspension solution with the concentration of 7.0 mg/mL. The administration volume was 10 mL/kg.
# High-fat feed: basic feed ingredients were corn, flour, imported fish meal, soybean meal, secondary meal, yeast meal, soybean oil, etc. The high-fat feed was prepared from 73.6% basic feed with 10% lard, 10% egg yolk powder, 5% sucrose, 1.2% cholesterol and 0.2% pig bile salt.
# Source, species, strain: C57BL/6 mice, provided by Beijing Vital River Laboratory Animal Technology Co., Ltd. Nanjing Branch (experimental animal production license: SCXK (Su) 2016-0003); experimental animal use license: SYXK (Jun) 2012-0049; age: 6-8 weeks at the beginning of dosing; weight: 18-22 g; gender: half male and half female.
# After 3 days of adaptive feeding with normal feed, the mice were randomly assigned according to body weight: 8 mice were fed with normal feed and set as normal control (NC); the rest of mice were fed with high-fat feed until the end of the experiment. The mice were weighed and recorded every 3 days. After feeding with high-fat diet for 56 days (8 weeks), blood samples were collected from the orbital vein of mice to detect the blood biochemical indexes to identify whether the modelling was successful.
# After successful modeling, the mice in the high-fat feed group were randomly divided into 6 groups with 8 animals in each group, including model group, compound 4 low dose group, compound 4 high dose group, compound 7 low dose group, compound 7 high dose group and silymarin high-dose group. The mice in each group were administered intragastrically according to the animal's body weight every day for 28 consecutive days (4 weeks). At the same time, during the administration period, the mice in each administration group and model group continued to be fed with high-fat feed until the end of the experiment. The normal control group was administered the corresponding volume of normal saline.
# On the last day of the experiment, the mice in each group were fasted for 8 hours, blood was taken from the orbit and the serum was separated and then stored at −20° C. After blood collection, the mice were sacrificed and the liver was quickly separated, weighed and stored in a refrigerator at −80° C. Serum samples and liver tissue samples were subjected to determinations of serum triglyceride (TG), serum total cholesterol (TC), serum high-density lipoprotein (HDL-C), serum low-density lipoprotein (LDL-C), serum alanine aminotransferase (ALT), serum aspartate aminotransferase (AST), serum tumor necrosis factor alpha (TNFα), liver triglycerides (TG), liver total cholesterol (TC), liver malondialdehyde (MDA), liver superoxide dismutase (SOD); in addition, some livers of mice in the blank control group, model group, compound 7 low-dose group and silymarin high-dose group were fixed in neutral formaldehyde fixed solution and then HE staining was performed to analyzed the pathological changes of liver tissue.
smiles,measurement,setting,value
"COc1cc(OC)c2c(c1)OC(c1cc(O)c3c(c1)OC(c1ccc(O)c(OC)c1)C(CO)O3)C(O)C2 (stereo not drawn) [Compound 78, 7-{(3-hydroxy-5,7-dimethoxychroman-2-yl)-2-(4-hydroxy-3-methoxyphenyl)-3-hydroxymethyl-2,3-dihydrobenzo[b][1,4]dioxane}-5-ol]",Therapeutic effect on non-alcoholic fatty liver of zebrafish (in words),[1]; 100 μM,significant therapeutic effects
same,The total optical density of liver fat,[1]; 100 μM,19665 ± 1330 Pixels
same,inhibition at 100 µM,[1]; 100 μM,62%
"COc1cc([C@H]2Oc3cc([C@H]4Oc5cc(O)cc(O)c5C[C@@H]4O)ccc3O[C@@H]2CO)ccc1O [Compound 6, (2R,3S)-2-{(2R,3R)-3-(4-hydroxy-3-methoxyphenyl)-2-hydroxymethyl-2,3-dihydrobenzo[b][1,4]dioxan-6-yl}chroman-3,5,7-triol]",Therapeutic effect on non-alcoholic fatty liver of zebrafish (in words),[1]; 100 μM,significant therapeutic effects
same,The total optical density of liver fat,[1]; 100 μM,19868 ± 556 Pixels
same,Therapeutic effect on zebrafish non-alcoholic fatty liver (in words),[1]; 200 μM,significant therapeutic effect
same,The total optical density of liver fat,[1]; 200 μM,18157 ± 572 Pixels
same,inhibition at 100 µM,[1]; 100 μM,58%
same,inhibition at 200 µM,[1]; 200 μM,92%
"COc1cc([C@H]2Oc3cc([C@H]4Oc5cc(O)cc(O)c5/C(=N/O)[C@@H]4O)ccc3O[C@@H]2CO)ccc1O [Compound 46, (2R,3S)-3,5,7-trihydroxy-2-{(2R,3R)-3-(4-hydroxy-3-methoxyphenyl)-2-hydroxymethyl-2,3-dihydrobenzo[b][1,4]dioxan-6-yl}chroman-4-one oxime]",Therapeutic effect on zebrafish non-alcoholic fatty liver (in words),[1]; 200 μM,significant therapeutic effect
same,The total optical density of liver fat,[1]; 200 μM,19767 ± 814 Pixels
same,inhibition at 200 µM,[1]; 200 μM,60%
"COc1cc(C2Oc3cc(C4Oc5cc(F)cc(O)c5C(O)C4O)cc(O)c3OC2CO)ccc1O (stereo not drawn) [Compound 101, 7-fluoro-2-{8-hydroxy-3-(4-hydroxy-3-methoxyphenyl)-2-hydroxymethyl-2,3-dihydrobenzo[b][1,4]dioxan-6-yl}chroman-3,4,5-triol]",Therapeutic effect on non-alcoholic fatty liver of zebrafish (in words),[1]; 100 μM,significant therapeutic effects
same,The total optical density of liver fat,[1]; 100 μM,18090 ± 837 Pixels
same,inhibition at 100 µM,[1]; 100 μM,93%
"COc1cc([C@H]2Oc3cc([C@H]4Oc5cc(O)cc(O)c5C(O)[C@@H]4O)ccc3O[C@@H]2CO)ccc1O (stereo partly drawn) [Compound 5, (2R,3S)-2-{(2R,3R)-3-(4-hydroxy-3-methoxyphenyl)-2-hydroxymethyl-2,3-dihydrobenzo[b][1,4]dioxan-6-yl}chroman-3,4,5,7-tetraol]",Inhibition rate of liver steatosis,[1]; 100 μM,85** %
same,Therapeutic effect on non-alcoholic fatty liver of zebrafish (in words),[1]; 100 μM,significant therapeutic effects
same,The total optical density of liver fat,[1]; 100 μM,18496 ± 862 Pixels
same,Therapeutic effect on zebrafish non-alcoholic fatty liver (in words),[1]; 200 μM,significant therapeutic effect
same,The total optical density of liver fat,[1]; 200 μM,18452 ± 795 Pixels
same,inhibition at 100 µM,[1]; 100 μM,84%
same,inhibition at 200 µM,[1]; 200 μM,86%
"COc1cc(OC)c2c(c1)OC(c1cc(O)c3c(c1)OC(c1ccc(O)c(OC)c1)C(CO)O3)C(O)C2O (stereo not drawn) [Compound 92, 2-{8-hydroxy-3-(4-hydroxy-3-methoxyphenyl)-2-hydroxymethyl-2,3-dihydrobenzo[b][1,4]dioxan-6-yl}-5,7-dimethoxychroman-3,4-diol]",Therapeutic effect on non-alcoholic fatty liver of zebrafish (in words),[1]; 100 μM,significant therapeutic effects
same,The total optical density of liver fat,[1]; 100 μM,17836 ± 639 Pixels
same,inhibition at 100 µM,[1]; 100 μM,98%
"C[S+](CC[C@H](N)C(=O)[O-])C[C@H]1O[C@@H](n2cnc3c(N)ncnc32)[C@H](O)[C@@H]1O (stereo partly drawn) [S-adenosylmethionine, reference compound]",Inhibition rate of liver steatosis,[1]; 50 μM (SAM),89%
same,The total optical density of liver fat,[1]; 50 μM (SAM),18301 ± 783 Pixels
"COc1cc(C2Oc3cc(C4Oc5cc(O)cc(O)c5C(O)C4O)cc(O)c3OC2CO)ccc1O (stereo not drawn) [Compound 4, 2-{8-hydroxy-3-(4-hydroxy-3-methoxyphenyl)-2-hydroxymethyl-2,3-dihydrobenzo[b][1,4]dioxan-6-yl}chroman-3,4,5,7-tetraol]",Therapeutic effect on non-alcoholic fatty liver of zebrafish (in words),[1]; 100 μM,significant therapeutic effects
same,The total optical density of liver fat,[1]; 100 μM,18598 ± 608 Pixels
same,Therapeutic effect on zebrafish non-alcoholic fatty liver (in words),[1]; 200 μM,significant therapeutic effect
same,The total optical density of liver fat,[1]; 200 μM,17802 ± 487 Pixels
same,inhibition at 100 µM,[1]; 100 μM,83%
same,inhibition at 200 µM,[1]; 200 μM,99%
same,TG,NASH mice; 35 mg/kg/day,1.21 ± 0.05 mmol/L
same,Liver coefficient (liver weight/body weight),NASH mice; 35 mg/kg/day intragastric,4.43 ± 0.31 %
same,Liver weight,NASH mice; 35 mg/kg/day intragastric,1.39 ± 0.03 g
same,TG,NASH mice; 70 mg/kg/day,1.18 ± 0.06 mmol/L
same,Liver coefficient (liver weight/body weight),NASH mice; 70 mg/kg/day intragastric,4.54 ± 0.33 %
same,Liver weight,NASH mice; 70 mg/kg/day intragastric,1.43 ± 0.03 g
same,Therapeutic effect on non-alcoholic steatohepatitis in mice (in words),NASH mice; 35 and 70 mg/kg,significant therapeutic effects
same,MDA,"NASH mice; liver, 35 mg/kg/day",2.91 ± 0.42 nmol/mg
same,SOD,"NASH mice; liver, 35 mg/kg/day",18.08 ± 3.90 U/mg
same,TC,"NASH mice; liver, 35 mg/kg/day",1.51 ± 0.06 mmol/L
same,MDA,"NASH mice; liver, 70 mg/kg/day",2.80 ± 0.21 nmol/mg
same,SOD,"NASH mice; liver, 70 mg/kg/day",17.42 ± 4.16 U/mg
same,TC,"NASH mice; liver, 70 mg/kg/day",1.51 ± 0.11 mmol/L
same,ALT,"NASH mice; serum, 35 mg/kg/day",89.08 ± 18.93 U/L
same,AST,"NASH mice; serum, 35 mg/kg/day",140.13 ± 13.93 U/L
same,HDL-C,"NASH mice; serum, 35 mg/kg/day",0.95 ± 0.33 mmol/L
same,LDL-C,"NASH mice; serum, 35 mg/kg/day",2.55 ± 0.50 mmol/L
same,TC,"NASH mice; serum, 35 mg/kg/day",2.59 ± 0.32 mmol/L
same,TG,"NASH mice; serum, 35 mg/kg/day",1.18 ± 0.02 mmol/L
same,TNF-α,"NASH mice; serum, 35 mg/kg/day",414.20 ± 13.46 ng/L
same,ALT,"NASH mice; serum, 70 mg/kg/day",98.29 ± 75.07 U/L
same,AST,"NASH mice; serum, 70 mg/kg/day",120.04 ± 12.55 U/L
same,HDL-C,"NASH mice; serum, 70 mg/kg/day",0.97 ± 0.37 mmol/L
same,LDL-C,"NASH mice; serum, 70 mg/kg/day",2.13 ± 0.54 mmol/L
same,TC,"NASH mice; serum, 70 mg/kg/day",2.58 ± 0.30 mmol/L
same,TG,"NASH mice; serum, 70 mg/kg/day",1.24 ± 0.16 mmol/L
same,TNF-α,"NASH mice; serum, 70 mg/kg/day",415.80 ± 13.54 ng/L
